Source: the NIST ThermoML archive (doi:10.1016/j.jct.2018.08.034)
Where “and” joins values, the source holds several entries; their conditions need not be identical. Equal values may be shown once.

Key:
[1] = Crystal
[2] = Molar enthalpy of transition or fusion; settings: Crystal; DSC

c1ccc2cc3sccc3cc2c1 [naphtho[2,3-b]thiophene]
Settings	Normal melting temperature [°C]
[1], DTA	188.6

Settings	Molar enthalpy of transition or fusion [kcal/mol]
[2]	5.09

c1ccc2cc3ccccc3cc2c1 [anthracene]
[1]
Settings	vapor or sublimation pressure
343.29 K	0.000192 kPa
343.3 K	0.000182 kPa
343.31 K	0.000197 kPa
345.76 K	0.000235 kPa and 0.00024 kPa
345.79 K	0.000247 kPa
348.21 K	0.000317 kPa and 0.000305 kPa
348.27 K	0.000297 kPa
350.75 K	0.000392 kPa
350.76 K	0.000401 kPa
350.79 K	0.000384 kPa
353.04 K	0.000479 kPa and 0.000485 kPa
353.19 K	0.000498 kPa
355.68 K	0.00063 kPa
355.73 K	0.000626 kPa
355.74 K	0.000623 kPa
358.14 K	0.000799 kPa
358.15 K	0.000784 kPa
358.18 K	0.000798 kPa
360.63 K	0.001 kPa
360.66 K	0.000992 kPa
360.68 K	0.000998 kPa
362.95 K	0.00123 kPa and 0.001232 kPa
363.13 K	0.001244 kPa
365.54 K	0.00155 kPa
365.55 K	0.001551 kPa
365.56 K	0.001562 kPa
367.97 K	0.001927 kPa and 0.001947 kPa
367.98 K	0.001941 kPa
370.43 K	0.002398 kPa
370.44 K	0.002418 kPa and 0.002409 kPa
372.85 K	0.00298 kPa
372.89 K	0.002973 kPa and 0.002978 kPa
